One experiment concerns THP1 monocytes. Put plainly: PR3-stimulated giant cell formation in THP1 monocytes matured to macrophages. It counts as cell-based. Particulars: PMA 24 hours, PR3 10 mcg/ml 72 hours, with or without Stattic; FIG. 19. The protocol: An in vitro model of granulomatous disease was created using THP1 monocytes. The THP1 monocytes were matured to macrophages by the addition of PMA for 24 hours and then stimulated with PR3 at 10 mcg/ml for 72 hours in the presence or absence of Stattic, a STAT3 inhibitor. MGC formation was assessed as before by calculating the fusion index.

For the next experiment, the system named is macrophage aggregation. The experiment in a line: PR3-induced macrophage aggregation / MGC formation in zebrafish embryos, niclosamide added to fish water. Type of experiment: in vivo. The settings on record: for Median aggregate volume: PR3-injected zebrafish, PR3 alone 106969 (41031-465184). How it is done:
The injection of intact or HI PR3 into the zebrafish was repeated in the presence or absence of the IL-6/STAT3 inhibitor niclosamide, which was added to the fish water at different concentrations (0.01-0.3 μmol/l) (FIG. 11B, C). […] Median aggregate volume PR3 vs PR3 and niclosamide 0.3, 0.15. 0.05. 0.01 μmol/ml respectively 106969 (41031-465184), 42730 (25638-324957), 44501 (26861-90354), 63043 (27395-205060), 117473 (35128-245781) (p<0.05 PR3 vs 0.3 and 0.05, p<0.001 PR3 vs 0.15 μmol/l; one way ANOVA).
In Vivo Effect of PR3 on MGC Formation and the Ability of Niclosamide to Reduce MGC Formation In order to understand granuloma formation in vivo, a zebrafish embryo model was developed. Transgenic macrophage reporter zebrafish {Tg (MPEg: cherry)} embryos at 24 hpf, were injected into the yolk sac with human PR3 or Albumin at 1 or 5 […], either untreated or following heat inactivation. Embryos were imaged at 120 hpf with lightsheet microscopy showing volumes of fused macrophages according to the colour scale (see FIG. 8A-D). […] Median (IQR) aggregate volumes were HI albumin 5 pg/ml 22713 μm^3 (19918-31486) and HI PR3 5 pg/ml 31571 μm^3 (23137-49647) (p<0.001, one way ANOVA). In subsequent experiments, the injection of intact or HI PR3 was repeated in the presence or absence of the IL-6-STAT3 inhibitor niclosamide, added to the fish water at different concentrations (0.01-0.3 μmol/l) (see FIG. 8F-G). […] Median aggregate volume PR3 vs PR3 and niclosamide 0.3, 0.15. 0.05. 0.01 μmol/ml respectively 106969 (41031-465184), 42730 (25638-324957), 44501 (26861-90354), 63043 (27395-205060), 117473 (35128-245781) (p<0.05 PR3 vs 0.3 and 0.05, p<0.001 PR3 vs 0.15 μmol/l; one way ANOVA).
In Vivo Danio rerio Model All animal experimental protocols were approved by University College London's Animal Welfare and Ethical Review Body (AWERB) and licensed by the UK Home Office. All experiments were performed in accordance with relevant guidelines and regulations as described in UK Home Office Project License (PPL 70/8365) awarded to Dr Paul Frankel. The Transgeneic Tg (mpeg: GFP) line was kindly provided by Professor Maggie Dallman (Imperial College London, UK). Zebrafish were maintained in mixed-sex populations at 28° C. with a 14 h: 10 h light: dark cycle from 9 am-[…] and within internationally agreed environmental parameters regarding water quality and composition. Following dechorionation and anaesthesia with tricaine (0.2 mg/ml), embryos were microinjected into the yolk sac with 5 pg/mL of PR3, heat inactivated PR3, or albumin and incubated in 10 cm Petri dishes at 28.5° C. After 5 days, living embryos were anaesthetised with tricaine (0.2 mg/ml) and embedded in 2% agarose for 3-dimensional confocal microscopy using a Ziess camera at ×200 magnification to determine macrophage fusion. Z-stacks were analysed using Imaris software version 9.2. Images were 3D rendered and aggregate volumes measured by automated thresholds.

A further experiment has as its system IL-6. Put plainly: IL-6 levels in zebrafish model of granulomatous disease. Type of experiment: in vivo. Particulars: PR3 zebrafish model, niclosamide via fish tank water. The text has this:
An in vivo model of granulomatous disease in zebrafish was developed by administering PR3 to the fish.

For a further experiment, the system named is GPA patients' monocytes. Put plainly: PR3-stimulated MGC formation (fusion index) in GPA patients' monocytes. Type of experiment: cell-based, human. Particulars: cultured monocytes; Tocilizumab 10 μg/mL.

“Also recorded” adds a separate entry of the source.

The results in this text go back to patent US20260216107A1, “INTERLEUKIN-6 (IL-6)/SIGNAL TRANSDUCER AND ACTIVATOR OF TRANSCRIPTION 3 (STAT3) PATHWAY INHIBITORS FOR USE IN THE TREATMENT OF GRANULOMATOUS DISEASES” (UCL BUSINESS LTD, priority 2023, published 2026).

For the compound `O=[N+]([O-])c1ccc2c(c1)S(=O)(=O)C=C2` [Stattic], the “giant cell formation index” value in the experiment with THP1 monocytes is recorded as “significant decrease; also recorded: lower giant cell formation index”.

On to `O=C(Nc1ccc([N+](=O)[O-])cc1Cl)c1cc(Cl)ccc1O` [niclosamide, Niclosamide], for which the “aggregate volume and number” value in the experiment with macrophage aggregation (FIG. 8F, G, 0.3, 0.15 and 0.05 μmol/ml niclosamide compared to PR3 alone) is “reduction in aggregate volume and number”. In addition, the Median aggregate volume in the experiment on macrophage aggregation (niclosamide 0.01 μmol/l in fish water) was 117473 (35128-245781) μm^3; in the experiment with macrophage aggregation (niclosamide 0.05 μmol/l in fish water, p<0.05), 63043 (27395-205060) μm^3; in the experiment with macrophage aggregation (niclosamide 0.15 μmol/l in fish water, p<0.001), 44501 (26861-90354) μm^3; with macrophage aggregation (niclosamide 0.3 μmol/l in fish water, p<0.05) it was 42730 (25638-324957) μm^3. Moreover, the granuloma formation result in the experiment with macrophage aggregation (PR3 zebrafish model, niclosamide via fish tank water) is reported as “significantly inhibit granuloma formation”. Moreover, the macrophage aggregation result in the experiment with macrophage aggregation (after injection of enzymatically active or inactive PR3 into the yolk sac) is “significantly attenuated”. Moreover, in the experiment on macrophage aggregation (zebrafish injected with intact or HI PR3, niclosamide 0.01-0.3 μmol/l in fish water, vs PR3 alone), the MGC formation entry is “significantly less MGC formation”. Further, in the experiment on macrophage aggregation (zebrafish injected with intact or HI PR3, niclosamide in fish water), the “concentration at which the reduction of MGC formation was maximal” value is 0.15 µmol/mL. Also, the IL-6 levels entry with IL-6 is given as “reduce IL-6 levels”.

As to “Tocilizumab: humanised IgG1 monoclonal antibody against the human interleukin-6 (IL-6) receptor (RoActerma, Roche, UK)”, the granuloma formation result with GPA patients' monocytes was “reduced granuloma formation”.
